Measurements from the CheMixHub viscosity set.
Several values for one entry are separate records, joined by “and”; a condition that tells them apart may be missing. Equal values may be shown once. ± gives the uncertainty stated by the source.

C=CC(C)O (stereo not given)
101.32 kPa
Conditions	viscosity [mPa·s]
308.15 K	1.294 ± 0.024
313.15 K	1.144 ± 0.021
318.15 K	1.015 ± 0.019
323.15 K	0.9032 ± 0.017

CCCCCCN
viscosity
Conditions	303.15 K	308.15 K	313.15 K
101 kPa	0.6979 ± 0.006 mPa·s and 0.729 ± 0.0081 mPa·s and 0.7123 ± 0.0068 mPa·s	0.6 ± 0.062 mPa·s and 0.6 ± 0.0079 mPa·s	0.6134 ± 0.0063 mPa·s
101.33 kPa	0.7123 ± 0.0068 mPa·s	–	0.6134 ± 0.0063 mPa·s

CCCCCCn1cc[n+](C)c1.F[B-](F)(F)F
101 kPa
Conditions	viscosity
298.15 K	171.8 ± 8.1 mPa·s and 211.2 ± 11 mPa·s
299.15 K	198.1 ± 9.4 mPa·s and 197.3 ± 9.4 mPa·s
301.15 K	177.2 ± 7.8 mPa·s and 175.8 ± 7.7 mPa·s
302.15 K	167.2 ± 7 mPa·s and 165.9 ± 7 mPa·s
304.15 K	148.4 ± 5.8 mPa·s and 148.6 ± 5.7 mPa·s
305.15 K	141.2 ± 5.1 mPa·s and 140.7 ± 5.1 mPa·s
307.15 K	127.5 ± 4.2 mPa·s and 126.7 ± 4.2 mPa·s
308.15 K	145.4 ± 44 mPa·s and 120.7 ± 3.8 mPa·s and 120 ± 3.8 mPa·s
313.15 K	113.6 ± 34 mPa·s and 55 ± 3.4 mPa·s
318.15 K	90.3 ± 27 mPa·s
323.15 K	72.8 ± 22 mPa·s and 36 ± 2.2 mPa·s

CCCO
Conditions	viscosity
293.15 K, 101.33 kPa	2.185 ± 0.046 mPa·s and 2.327 ± 0.023 mPa·s
295.15 K, 101 kPa	2.12 ± 0.056 mPa·s
298.15 K, 100 kPa	1.91 ± 0.06 mPa·s
298.15 K, 101.31 kPa	2.004 ± 0.052 mPa·s
298.15 K, 101.33 kPa	1.743 ± 0.041 mPa·s
303 K, 101 kPa	1.634 mPa·s
303 K, 101.33 kPa	1.769 ± 0.016 mPa·s
303.15 K, 101 kPa	1.777 ± 0.018 mPa·s and 1.591 ± 0.02 mPa·s and 1.768 ± 0.034 mPa·s
303.15 K, 101.3 kPa	1.6 ± 0.1 mPa·s and 1.784 ± 0.021 mPa·s
303.16 K, 101 kPa	1.92 ± 0.23 mPa·s
308 K, 101.3 kPa	1.461 ± 0.15 mPa·s
308.15 K, 101.3 kPa	1.488 ± 0.037 mPa·s and 1.4 ± 0.1 mPa·s
308.15 K, 101.33 kPa	1.486 ± 0.009 mPa·s and 1.466 ± 0.012 mPa·s and 1.376 ± 0.033 mPa·s
311 K, 101.3 kPa	1.43 ± 0.023 mPa·s
313 K, 101.3 kPa	1.317 ± 0.13 mPa·s
313.15 K, 101.3 kPa	1.3 ± 0.1 mPa·s
313.15 K, 101.33 kPa	1.319 ± 0.008 mPa·s
318.15 K, 101.3 kPa	1.1 ± 0.1 mPa·s
319 K, 101.3 kPa	1.197 ± 0.02 mPa·s
323 K, 101 kPa	0.9714 ± 0.014 mPa·s
323 K, 101.3 kPa	1.165 ± 0.12 mPa·s
323.15 K, 101 kPa	1.15 ± 0.024 mPa·s
323.15 K, 101.3 kPa	0.92 ± 0.05 mPa·s
323.15 K, 101.33 kPa	1.136 ± 0.069 mPa·s and 1.166 ± 0.012 mPa·s

CNc1ccccc1
Conditions	viscosity [mPa·s]
298 K, 101 kPa	1.963 ± 0.05
298 K, 101.3 kPa	1.963 ± 0.052
298.15 K, 101 kPa	2.02 ± 0.03
303 K, 101.3 kPa	1.717 ± 0.046
303 K, 101.33 kPa	1.751 ± 0.045
303.15 K, 101 kPa	1.55 ± 0.04
308 K, 101.3 kPa	1.538 ± 0.041
308.15 K, 101.33 kPa	1.515 ± 0.051
313 K, 101.3 kPa	1.386 ± 0.037
318 K, 101.3 kPa	1.251 ± 0.034
323.15 K, 101 kPa	1.401 ± 0.12

COCCOCCOC
Conditions	viscosity
298.15 K, 101 kPa	0.983 ± 0.013 mPa·s and 0.983 ± 0.007 mPa·s and 0.996 ± 0.032 mPa·s
298.15 K, 101.32 kPa	0.989 ± 0.006 mPa·s
301.15 K, 100 kPa	1.2 ± 0.1 mPa·s and 1.3 ± 0.1 mPa·s and 1.4 ± 0.1 mPa·s
303.15 K, 101 kPa	0.923 ± 0.012 mPa·s
303.15 K, 101.33 kPa	0.904 ± 0.012 mPa·s
308.15 K, 101 kPa	0.839 ± 0.011 mPa·s and 0.839 ± 0.006 mPa·s and 0.868 ± 0.029 mPa·s
318.15 K, 101 kPa	0.721 ± 0.01 mPa·s and 0.721 ± 0.005 mPa·s
318.15 K, 101.33 kPa	0.728 ± 0.01 mPa·s (4×) and 0.725 ± 0.019 mPa·s and 0.728 ± 0.019 mPa·s

ClC(Cl)C(Cl)Cl
viscosity
Conditions	298.15 K	303 K	303.15 K	313.15 K	323.15 K
101 kPa	1.632 ± 0.034 mPa·s	–	1.455 ± 0.011 mPa·s and 1.521 ± 0.012 mPa·s	–	–
101.3 kPa	–	–	1.484 ± 0.01 mPa·s	–	–
101.32 kPa	–	–	1.45 ± 0.14 mPa·s and 1.455 ± 0.016 mPa·s	1.367 ± 0.14 mPa·s	1.18 ± 0.12 mPa·s
101.33 kPa	1.581 ± 0.016 mPa·s	1.381 ± 0.036 mPa·s	1.455 ± 0.011 mPa·s	–	1.075 ± 0.011 mPa·s

N#CCCO
Conditions	viscosity [mPa·s]
298 K, 101 kPa	3.571 ± 0.031

OC(C(F)(F)F)C(F)(F)F
101 kPa
Conditions	viscosity
298.15 K	1.579 ± 0.023 mPa·s and 1.619 ± 0.013 mPa·s
303.15 K	1.361 ± 0.011 mPa·s
313.15 K	0.989 ± 0.014 mPa·s and 1 ± 0.008 mPa·s
323.15 K	0.765 ± 0.011 mPa·s and 0.788 ± 0.007 mPa·s

Oc1ccccc1
Conditions	viscosity
293.15 K, 101 kPa	11.04 ± 0.14 mPa·s and 11.04 ± 0.12 mPa·s and 11.04 ± 0.16 mPa·s
293.2 K, 101 kPa	11.04 ± 0.16 mPa·s
293.25 K, 101 kPa	11.04 ± 0.15 mPa·s and 11.04 ± 0.16 mPa·s
298 K, 101.3 kPa	9.41 ± 0.14 mPa·s
298.15 K, 101 kPa	8.945 ± 0.13 mPa·s
302.95 K, 101 kPa	7.09 ± 0.08 mPa·s and 7.1 ± 0.085 mPa·s
303 K, 101.3 kPa	7.553 ± 0.093 mPa·s
303.05 K, 101 kPa	7.09 ± 0.09 mPa·s
303.1 K, 101 kPa	7 ± 0.15 mPa·s
303.15 K, 101.33 kPa	7 ± 0.07 mPa·s
308 K, 101.3 kPa	6.106 ± 0.064 mPa·s
308.1 K, 101 kPa	5.55 ± 0.11 mPa·s
308.15 K, 101 kPa	6.032 ± 0.16 mPa·s and 4.649 ± 0.057 mPa·s
308.15 K, 101.33 kPa	5.969 ± 0.072 mPa·s
313 K, 101.3 kPa	4.971 ± 0.052 mPa·s
313.05 K, 101 kPa	4.79 ± 0.05 mPa·s
313.25 K, 101 kPa	4.74 ± 0.06 mPa·s
313.35 K, 101 kPa	4.74 ± 0.05 mPa·s
318 K, 101.3 kPa	4.056 ± 0.046 mPa·s
322.95 K, 101 kPa	3.28 ± 0.04 mPa·s
323.1 K, 101 kPa	3.2 ± 0.073 mPa·s and 3.2 ± 0.065 mPa·s
323.15 K, 101.33 kPa	3.2 ± 0.032 mPa·s and 3.432 ± 0.034 mPa·s
